≈ marks a conversion by molar mass, not a printed value. Like-named read-outs stand apart in the source and are kept apart here. Marks after values point to notes of the source that are not given here.
Legend:
[1] = test system: rat embryonic fibroblast (REF 52) cells; test: Ion permeation measurement, Ca^2+ flux with fura-2 (fibroblasts); format: cell-based; conditions: 0.2 μM
Procedure: The following cell types were tested for toxicity due to KmTx 2; rat embryonic fibroblast, rat intestional epithelial, and isolated rabbit primary sensory neurons. Cells were cultured on No. 1 glass coverslips and loaded with fluorescent indicator (fura-2) and were examined on an inverted epifluorescence microscope (model Diaphot; 40×CF Fluor objective, N.A. 1.30; Nikon Corp.) coupled to a spectrofluorometer (model CM1T10I, SPEX Industries) operating in the microfluorometry mode. Cells were bathed in 4 ml of Dulbecco's modified Eagle's medium (DMEM) buffered with HEPES (pH 7.4). KmTx 2 (stock solution in DMSO) was directly bath-applied with gentle convective mixing. Fura-2 was alternately excited at 340 and 380 nm. Fluorescence emission was passed through a 510-nm bandpass filter before photometric quantitation. DATAMAX software (SPEX Industries) was used for data acquisition and instrument control. Origin software (OriginLab Corp.) was used for data reduction and analysis

[2] = test system: rainbow trout erythrocytes; test: Membrane lipid inhibition assay of KmTx 2 hemolytic activity; format: cell-based; conditions: for inhibition of the hemolytic activity of KmTx 2 by co-incubation: 0.001-10 μM sterol or lipid, KmTx 2 0.1, 0.5, 1 μg/ml
Procedure: To assess the inhibitory effects of exogenous membrane lipids on KmTx 2 hemolytic activity, the following sterols and lipids were tested: cholesterol, ergosterol, gymnodinosterol, and both natural and synthetic phosphatidylcholine. Cholesterol (5-cholesten-3β-ol) and L-α-phosphatidylcholine (brain, porcine) were purchased from Avanti Polar Lipids Inc. (Alabaster, Ala.); ergosterol (5,7,22-cholestatrien-24β-methyl-3β-ol) was purchased from Steraloids, Inc. (Newport, R.I.). Synthetic phosphatidylcholine (L-α-lecithin (β-γ-dipalmitoyl) was purchased from Calbiochem (San Diego, Calif.), Gymnodinosterol was isolated from filtered K. micrum (CCMP 2282) cells (isolation described in supplemental materials). KmTx 2: 0, 0.1, 0.5, and 1 μg/ml was added to solutions of Tris buffer +CaCl2 with either: 0, 0.001, 0.01, 0.1, 1 or 10 μM selected sterol or membrane lipid. Stock solutions of toxin and lipid were made in methanol and no more than 1% of each (2% total) was added to any given well. After brief mixing, these solutions were added 1: 1 with a diluted suspension of rainbow trout erythrocytes and hemolytic activity was assessed as described in supplemental materials.

[3] = test system: rainbow trout erythrocytes; conditions: for presence of hemolytic activity of copper solution: mixed with equal volume of 5% erythrocyte suspension
Procedure: The filtrate from water samples collected on Feb. […] Environmental water samples were allowed to thaw to room temperature and passed through a Sep-Pak Plus tC18 disposable cartridge (Waters Corp., Milford Mass.), attached to a vacuum manifold. The column was pre-equilibrated with methanol (20 ml) followed by H2O (20 ml). The cartridges were eluted with the following concentrations of MeOH/H2O: 100% H2O, 40%, 60%, 80%, and 100% MeOH (12 ml ea^−1). An aliquot of each elution was diluted, using Tris buffer +CaCl2, to give final dilutions ranging from 6 to 60% of original concentrations. […] The occurrence of hemolytic activity was determined by the absorbance of released hemoglobin, measured at 540 nm. Saponin (10 μg) served as a positive hemolysin control. Treatments were run in quadruplicate.
A hemolytic assay based on the lysis of fish erythrocytes was utilized to screen for bioactive materials. Cultures and culture fractions that were positive in the hemolytic assay were tested further using assays for ichthyotoxicity and cytotoxicity.
Blood was extracted from the caudal vein of rainbow trout (Oncorhynchus mykis) provided by the Center of Marine Biotechnology's Aquaculture Research Center. Needles were heparin (Sigma Chemical Co., St. Louis Mo.) treated and 10 units ml^−1 of additional heparin was added to whole blood samples to prevent clotting. […] Buffer pH was adjusted to 7.4 at 10° C. with 1N HCl, then filter sterilized (0.22 μm). […] Suspensions were stored at 4° C. for no longer than 10 days.
Hemolytic assays were performed by diluting test material in Tris buffer +CaCl2 (100 μl total) and adding this to a 5% erythrocyte suspension (100 μl). […] Assays were incubated on an orbital shaker (80-100 rpm) at 20° C. for 1 hour. Plates were then centrifuged at 2500 g for 5 min. and the supernatant (100 μl) was transferred to another flat bottom 96 well polystyrene plate, where the absorbance of released hemoglobin was read at 540 nm. Saponin (10 μg) (from Quillaja bark; Sigma Chemical Co., St. Louis Mo.) was used as a positive hemolysin control All treatments were run in quadruplicate.
LC50values and ranges were determined by Probit analysis (SPSS Base 10.0, SPSS Inc., Chicago Ill.).
Blood was extracted from the caudal vein of rainbow trout (Oncorhynchus mykis). […] Buffer pH was adjusted to 7.4 at 10° C. with 1N HCl, then filter sterilized (0.22 um). […] Blood suspensions were stored at 4° C. for no longer than 10 days.
Hemolysis assays were performed by diluting test material in Tris buFFer +CaCl2 (100 ul) and adding this to 100 ul of a 5% erythrocyte suspension for a total assay volume of 200 ul. […] Plates were incubated on an orbital shaker (80-100 rpm) at 20° C. for 1 hour. Plates were then centrifuged at 2000 g for 5 min. and the supernatant (100 ul) was transferred to a new flat bottom 96 well polystyrene plate, where the absorbance of released hemoglobin was read at 540 nm. Saponin (from Quillaja bark; Sigma Chemical Co., St. Louis Mo.) was used as a positive hemolysin control. Percent hemolysis (0-100%) was calculated from comparison to un-treated controls and samples treated with 10 ug saponin. All treatments were run in quadruplicate.
Hemolytic LC50 values were calculated from a dilution series of KmTx 2 and amphotericin B. LC50 values and ranges were determined by Probit analysis using a SPSS Base 10.0 statistical software package (SPSS Inc., Chicago, Ill.).

[4] = test system: sheepshead minnow (Cyprinodon variegatus) larvae; test: Static acute larval fish ichthyotoxicity bioassay (sheepshead minnow); format: in vivo; conditions: algicide alone (control larvae without K. micrum)
Procedure: Ichthyotoxicity was evaluated using a static, acute (24-48 hour), small volume (2 ml), larval fish bioassay. Exposures were performed at 20° C. in 24-well non-tissue culture treated polystyrene plates (Becton Dickinson Labware, Franklin Lakes N.J.). Two species were utilized for ichthyotoxicity testing, zebrafish (Danio rerio) and sheepshead minnows (Cyprinodon variegatus), depending on their availability and salinity tolerance, with sheepshead minnows being tolerant to a wider range of salinities, but zebrafish being more readily obtainable in large numbers. Therefore, zebrafish, 5-<48 hrs old post-hatch, were used for toxic fraction testing, while sheepshead minnows, 3-<24 hours old post-hatch, were used to test whole dinoflagellate cultures. Larvae were not fed prior to or during testing. Previous experiments had shown that, at the biomass/water ratios used for each species, oxygen saturation remained >60% during the 48 hour exposure, as recommended in the Standard Guide for Conducting Acute Toxicity Tests with Fishes, Macroinvertebrates, and Amphibians (ASTM, 1992). All treatments were run in triplicate.
This experiment was run in triplicate. For these experiments, 12 psu ASW (Instant Ocean Brand) with added f/2-Si nutrient mixture (Guillard, 1975) and 1.5% soil extract and 0.3% chicken manure extract (alkalinity 75 mg L^−1 CaCO3) was used as the diluent. […]

[5] = test system: Karlodinium micrum (CCMP 1974); test: Dinoflagellate lysis due to copper sulfate and potassium permanganate (K. micrum); format: cell-based; conditions: exposures ≧2 mg L^−1 and only after 2 hours
striped bass fingerlings = conditions: comparable salinities, higher alkalinities (Reardon and Harrell, 1990); cited from earlier work
[6] = for % DECREASE of measured free copper: n = 2
Procedure: The first experiment involved the addition of EDTA ([…]) [as EDTA +4 Na·2 H2O ] to 0.9% NaCl solutions containing CuSO4·5 H2O (0.1, 0.5, 2.5, or 10 mg L^−1 Cu). Free Cu was measured using the porphyrin method (range 0-210 μg L^−1 ) (HACH, Loveland Colo.). […] Each solution, with and without EDTA, was assayed for hemolytic activity.

[7] = test system: Aspergillus niger (ATCC 1004); test: Anti-fungal broth microdilution assay (filamentous fungi); format: cell-based
Procedure: (§1) The following fungal strains were purchased from the American Type Culture Collection (Manassas, Va.), Aspergillus niger (ATCC 1004) as a representative filamentous fungi, and Candida albicans (ATCC 14053) as a representative yeast. Assays were performed according to the following National Committee for Clinical Laboratory Standards documents; M27-A2 Reference Method for Broth Dilution Antifungal Susceptibility Testing of Yeasts; Approved Standard—Second Edition([NCCLS, 2002), and M38-A Reference Method for Broth Dilution Antifungal Susceptibility Testing of Filamentous Fungi; Approved Standard (NCCLS, 2002). Procedures for the broth microdilution modification were followed for both species with the following exceptions; A. niger stocks were maintained on Potato Dextrose Agar at 25° C., while C. albicans was maintained on Yeast Malt Agar at 28° C., both according to ATCC recommendations. Amphotericin B was used as a positive control. Microdilution assays were performed in HyQ-RPMI-1640 media (HyClone, Logan, Utah.), with 2.05 mM L-glutamine, without sodium bicarbonate, pH 7.2 using dilutions of 1 mg/ml DMSO stocks of KmTx 2 and amphotericin B.
(§2) The following concentrations were tested for both KmTx2 and amphotericin B: 0.0625, 0.125, 0.25, 0.5, 1, 2, 4, 8, and 16 μg/ml. A maximum of 1.6% DMSO was added to any given well. Plates were incubated at 25 and 28° C., respectively, for A. niger and C. albicans. […] Amphotericin B and all culture media were purchased from Sigma-Aldrich (St. Louis, Mo.).

[8] = test system: Candida albicans (ATCC 14053); test: Anti-fungal broth microdilution assay (yeast); format: cell-based
Procedure: as §1, §2

[9] = any concentration (0.0625-16 μg/ml) after 24 hours

NC(=O)CC[C@@H]1NC(=O)[C@H](Cc2ccccc2)NC(=O)[C@H](Cc2ccc(O)cc2)NC(=O)[C@@H](N)CSSC[C@@H](C(=O)N2CCC[C@H]2C(=O)N[C@@H](CCCN=C(N)N)C(=O)NCC(N)=O)NC(=O)[C@H](CC(N)=O)NC1=O [vasopressin, reference compound]
cytosolic Ca^2+ levels [1]: spike in cytosolic Ca^2+ levels followed by rapid decline to level above baseline

L-α-phosphatidylcholine (brain, porcine) [natural brain phosphotidylcholine]
inhibition of the hemolytic activity of KmTx 2 by co-incubation [2]: no inhibition

O.O.O.O.O.O=S(=O)([O-])[O-].[Cu+2] [CuSO4, CuSO4·5 H2O]
presence of hemolytic activity of copper solution ([3]; copper 5 mg L^−1 without EDTA): 4.957*
presence of hemolytic activity of copper solution ([3]; copper 20 mg L^−1 without EDTA): 21.110*
mortality or epithelial damage of sheepshead minnow larvae [4]: No mortality or epithelial damage
Cell lysis [5]: occurred in K. micrum
96h LC50 (striped bass fingerlings): ca. 8 mg L^−1

CCCCCCCCCCCCCCCC(=O)OC[C@H](COP(=O)([O-])OCC[N+](C)(C)C)OC(=O)CCCCCCCCCCCCCCC [synthetic dipalmitoyl (16:0), L-α-lecithin (β-γ-dipalmitoyl)]
inhibition of the hemolytic activity of KmTx 2 by co-incubation [2]: no inhibition

CC(C)[C@H](C)C=C[C@@H](C)[C@H]1CCC2=C3CC[C@H]4[C@H](C)[C@@H](O)CC[C@]4(C)[C@H]3CC[C@@]21C [gymnodinosterol, (24S)-4α-methyl-5α-ergosta-8(14),22-dien-3β-ol]
inhibition of the hemolytic activity of KmTx 2 by co-incubation [2]: not inhibited

CC(C)CCC[C@@H](C)[C@H]1CC[C@H]2[C@@H]3CC=C4C[C@@H](O)CC[C@]4(C)[C@H]3CC[C@]12C [cholesterol, 5-cholesten-3β-ol]
inhibition of the hemolytic activity of KmTx 2 by co-incubation [2]: inhibited
concentration at which complete inhibition was reached ([2]; co-incubation with KmTx 2): ca. 10 μM

O.O.O=C([O-])CN(CCN(CC(=O)[O-])CC(=O)[O-])CC(=O)[O-].[Na+].[Na+].[Na+].[Na+] [EDTA, EDTA +4 Na·2 H2O]
effect of EDTA on hemolytic activity due to Cu alone [3]: completely remove hemolytic activity
free Cu chelated ([6]; EDTA 2 mM, all concentrations tested): > 90%
% DECREASE of measured free copper ([6]; copper 0.2 mg L^−1, EDTA 2 mM): 96.3%
% DECREASE of measured free copper ([6]; copper 1 mg L^−1, EDTA 2 mM): 95.9%
% DECREASE of measured free copper ([6]; copper 5 mg L^−1, EDTA 2 mM): 90.4%
% DECREASE of measured free copper ([6]; copper 20 mg L^−1, EDTA 2 mM): 92.6%

CC(C)[C@@H](C)/C=C/[C@@H](C)[C@H]1CC[C@H]2C3=CC=C4C[C@@H](O)CC[C@]4(C)[C@H]3CC[C@]12C [ergosterol, 5,7,22-cholestatrien-24β-methyl-3β-ol]
inhibition of the hemolytic activity of KmTx 2 by co-incubation [2]: inhibited
concentration at which inhibition plateaued ([2]; co-incubation with KmTx 2): ca. 1 μM

C[C@@H]1[C@H](O)[C@@H](C)/C=C/C=C/C=C/C=C/C=C/C=C/C=C/[C@H](O[C@@H]2O[C@H](C)[C@@H](O)[C@H](N)[C@@H]2O)C[C@@H]2O[C@](O)(C[C@@H](O)C[C@@H](O)[C@H](O)CC[C@@H](O)C[C@@H](O)CC(=O)O[C@H]1C)C[C@H](O)[C@H]2C(=O)O [amphotericin B, reference compound]
hemolytic LC50 ([3]; probit analysis of dilution series): 3.759 µg/mL
growth [7, 9]: no growth was observed
Minimal inhibitory concentration (MIC) ([7]; lowest dose with no growth after 96 hours, 25° C.): 0.5 µg/mL (≈ 0.541 µM)
growth [8, 9]: no growth was observed
Minimal inhibitory concentration (MIC) ([8]; lowest dose with no growth after 96 hours, 28° C.): 0.125 µg/mL (≈ 0.135 µM)
